Laboratory results taken from ChEMBL document CHEMBL3600370, “Synthesis and evaluation of novel prenylated chalcone derivatives as anti-leishmanial and anti-trypanosomal compounds” (Bioorg Med Chem Lett, 2015).

Legend:
[1] = Selectivity index, ratio of EC50 for BALB/c mouse peritoneal macrophages to EC50 for Trypanosoma cruzi Y epimastigotes
[2] = tested on: Leishmania infantum; assay: Anti-leishmanial activity against Leishmania infantum MHOM/BR/72 promastigotes assessed as parasite growth inhibition incubated for 72 hrs by MTT assay; type: functional, organism-based; details: MHOM/BR/72, 72 h
[3] = tested on: Leishmania amazonensis; assay: Anti-leishmanial activity against Leishmania amazonensis MPRO/BR/1972/M1841-LV-79 promastigotes assessed as parasite growth inhibition incubated for 72 hrs by MTT assay; type: functional, organism-based; details: MPRO/BR/1972/M1841-LV-79, 72 h
[4] = Selectivity index, ratio of EC50 for BALB/c mouse peritoneal macrophages to EC50 for Leishmania infantum MHOM/BR/72 promastigotes
[5] = Cytotoxicity against Swiss mouse peritoneal macrophages incubated for 24 hrs by MTT assay; details: Peritoneal macrophage cell
[6] = Selectivity index, ratio of EC50 for BALB/c mouse peritoneal macrophages to EC50 for Leishmania amazonensis MPRO/BR/1972/M1841-LV-79 promastigotes
[7] = tested on: Trypanosoma cruzi; assay: Anti-trypanosomal activity against Trypanosoma cruzi Y epimastigotes assessed as parasite growth inhibition incubated for 72 hrs by MTT assay; type: functional, organism-based
[8] = Selectivity index, ratio of EC50 for BALB/c mouse peritoneal macrophages to EC50 for Leishmania infantum MHOM/BR/72 amastigotes
[9] = Selectivity index, ratio of EC50 for BALB/c mouse peritoneal macrophages to EC50 for Leishmania amazonensis MPRO/BR/1972/M1841-LV-79 amastigotes
[10] = tested on: Leishmania amazonensis; assay: Anti-leishmanial activity against Leishmania amazonensis MPRO/BR/1972/M1841-LV-79 amastigotes infected in BALB/c mouse peritoneal macrophages assessed as reduction in the infection index incubated for 24 hrs by Giemsa staining method; type: functional, organism-based; details: MPRO/BR/1972/M1841-LV-79, 24 h
[11] = tested on: Leishmania infantum; assay: Anti-leishmanial activity against Leishmania infantum MHOM/BR/72 amastigotes infected in BALB/c mouse peritoneal macrophages assessed as reduction in the infection index incubated for 24 hrs by Giemsa staining method; type: functional, organism-based; details: MHOM/BR/72, 24 h

SMILES	EC50 [7] [µM]	EC50 [10] [µM]	EC50 [11] [µM]	Ratio EC50 [1]	EC50 [2] [µM]	EC50 [3] [µM]	Ratio EC50 [4]	EC50 [5] [µM]	Ratio EC50 [6]	Ratio EC50 [8]	Ratio EC50 [9]
CC(C)=CCC/C(C)=C/CC/C(C)=C/COc1cccc(/C=C/C(=O)c2ccccc2)c1	23.8	21.9	32.5	2.32	5.98	9.25	9.22	55.1	6	1.69	2.52
C[C@@H]1[C@H](O)[C@@H](C)/C=C/C=C/C=C/C=C/C=C/C=C/C=C/[C@H](O[C@@H]2O[C@H](C)[C@@H](O)[C@H](N)[C@@H]2O)C[C@@H]2O[C@](O)(C[C@@H](O)C[C@@H](O)[C@H](O)CC[C@@H](O)C[C@@H](O)CC(=O)O[C@H]1C)C[C@H](O)[C@H]2C(=O)O [AMPHOTERICIN B]	–	4.92	2.98	–	0.92	3.22	25.11	23.1	7.17	7.75	4.7
O=C(Cn1ccnc1[N+](=O)[O-])NCc1ccccc1 [BENZNIDAZOLE]	4.07	–	–	–	–	–	–	–	–	–	–
O=C(/C=C/c1ccccc1)c1ccccc1 [CHALCONE]	103	–	–	0.09	8.89	13.2	1.06	9.5	0.7	–	–
N=C(N)c1ccc(OCCCCCOc2ccc(C(=N)N)cc2)cc1 [PENTAMIDINE]	–	6.25	19.8	–	67.7	10.2	0.53	35.7	3.5	1.81	5.71

The next lines start with results.

EC50 [7] [µM]	EC50 [10] [µM]	EC50 [11] [µM]	SMILES	Ratio EC50 [1]	EC50 [2] [µM]	EC50 [3] [µM]	Ratio EC50 [4]	EC50 [5] [µM]	Ratio EC50 [6]	Ratio EC50 [8]	Ratio EC50 [9]
75.9	–	–	O=C(/C=C/c1ccccc1O)c1ccccc1	1.88	91.7	334	1.56	143	0.43	–	–
21.6	19.9	10.4	CC(C)=CCOc1ccccc1/C=C/C(=O)c1ccccc1	5.16	4.69	4.38	23.73	111	25.41	10.69	5.58
69.4	2.9	2.24	CC(C)=CCC/C(C)=C/CC/C(C)=C/COc1ccccc1/C=C/C(=O)c1ccccc1	2.03	10.2	6.47	13.78	141	21.74	62.79	48.5
26.2	25.8	63.9	CC(C)=CCC/C(C)=C/COc1cccc(/C=C/C(=O)c2ccccc2)c1	3.12	7.81	8.92	10.49	81.9	9.18	1.28	3.17
68.3	–	–	O=C(/C=C/c1cccc(O)c1)c1ccccc1 [3-HYDROXY CHALCONE]	2.09	185	412	0.96	143	0.35	–	–
